Laboratory results as given in patent US20200207734A1, “HETEROCYCLIC COMPOUND AND USE THEREOF” (Takeda Pharmaceutical Company Limited, priority 2017, published 2020).

Each compound was assayed against T1, human orexin type 2 receptor (Homo sapiens, UniProt O43614) (assay: Measurement of orexin type 2 receptor agonist activity (calcium fluorescence, CHO cells expressing hOX2R)). Details: test compound 3 μM; CHO cells expressing human OX2 receptor; DMSO = 0%, orexin A (human) = 100%.
T1 construct: human orexin type 2 receptor cDNA was inserted into pcDNA3.1(+) plasmid vector (Invitrogen); expressed in transfected cells
T1 sequence (O43614 1-444): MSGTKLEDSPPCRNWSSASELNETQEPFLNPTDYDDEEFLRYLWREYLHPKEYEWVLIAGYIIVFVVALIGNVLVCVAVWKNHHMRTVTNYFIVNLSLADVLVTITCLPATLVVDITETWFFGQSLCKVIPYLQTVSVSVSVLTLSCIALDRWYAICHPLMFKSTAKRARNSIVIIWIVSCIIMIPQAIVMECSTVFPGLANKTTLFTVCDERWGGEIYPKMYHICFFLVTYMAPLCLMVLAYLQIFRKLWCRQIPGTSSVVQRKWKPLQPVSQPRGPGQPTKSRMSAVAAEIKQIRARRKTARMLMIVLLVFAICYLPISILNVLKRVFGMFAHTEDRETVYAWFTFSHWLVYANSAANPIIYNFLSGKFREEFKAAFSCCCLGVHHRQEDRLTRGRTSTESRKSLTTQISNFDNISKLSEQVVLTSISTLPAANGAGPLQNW
Format: cell-based
Description: To obtain a cell clone stably expressing human orexin type 2 receptor, human orexin type 2 receptor cDNA was inserted into pcDNA3.1(+) plasmid vector (Invitrogen), and a plasmid DNA for expression of human orexin type 2 receptor (pcDNA3.1(+)/hOX2R) was cloned. The plasmid DNA was introduced into CHO-dhfr cell by an electroporation method, and human orexin type 2 receptor expressing clone cells were obtained by limiting dilution method by using G418 drug resistance as a selection marker.
CHO cells forcibly expressing human OX2 receptor were seeded in each well of 384 well black transparent bottom plate (BD Falcon) at 7,500 cells/well, and cultured for one day in a 5% CO2 incubator at 37° C. After removal of the medium in the cell plate, assay buffer A containing a calcium indicator (HBSS (Thermo Fisher Scientific), 20 mM HEPES (Thermo Fisher Scientific), 0.1% BSA (Wako Pure Chemical Industries, Ltd. or Sigma-Aldrich), 2.5 μg/mL Fluo-4 AM (DOJINDO Chemical), 0.08% Pluronic F127 (DOJINDO Chemical), 1.25 mM probenecid (DOJINDO Chemical)) was added at 30 μL/well. The plate was stood for 30 min in a 5% CO2 incubator at 37° C., and further stood at room temperature for 30 min. A test compound prepared by diluting with assay buffer B (HBSS, 20 mM HEPES, 0.1% BSA) was added at 10 μL/well, and the fluorescence value was measured by FDSSμCELL (Hamamatsu Photonics K.K.) every one sec for 1 min, and thereafter every two sec for 1 min 40 sec. The activity (%) of the test compound was calculated assuming that variation in the fluorescence value when DMSO was added instead of the test compound was 0%, and variation in the fluorescence value when orexin A (human) (PEPTIDE INSTITUTE, INC.) was added at the final concentration of 10 nM was 100%.

OX2R agonist activity (3 μM, %) [%]	Structure (SMILES)
67	COC(=O)N1CCC[C@H](NS(C)(=O)=O)[C@@H]1Cc1ccc(F)c(-c2ccccc2)c1 (relative stereo) [Example 41, methyl cis-2-((6-fluorobiphenyl-3-yl)methyl)-3-((methylsulfonyl)amino)piperidine-1-carboxylate]
97	CC(C)OC(=O)N1CCC[C@H](NS(C)(=O)=O)[C@@H]1Cc1cccc(-c2ccccc2)c1 (relative stereo) [Example 50, isopropyl cis-2-(biphenyl-3-ylmethyl)-3-((methylsulfonyl)amino)piperidine-1-carboxylate]
72	COC(=O)N1CCC[C@H](NS(C)(=O)=O)[C@@H]1Cc1cccc(-c2ccc3c(cnn3C)c2)c1 (relative stereo) [Example 53, methyl cis-2-(3-(1-methyl-1H-indazol-5-yl)benzyl)-3-((methylsulfonyl)amino)piperidine-1-carboxylate]
74	COC(=O)N1CC[C@H](NS(C)(=O)=O)[C@@H]1Cc1cccc(-c2ccccc2)c1 (relative stereo) [Example 61, methyl cis-2-(biphenyl-3-ylmethyl)-3-((methylsulfonyl)amino)pyrrolidine-1-carboxylate]
101	CS(=O)(=O)N[C@H]1CCCN(C(=O)C2CC2)[C@H]1Cc1cccc(-c2ccccc2)c1 (relative stereo) [Example 93, N-(cis-2-(biphenyl-3-ylmethyl)-1-(cyclopropylcarbonyl)piperidin-3-yl)methanesulfonamide]
97	CC(C)C(=O)N1CCC[C@H](NS(C)(=O)=O)[C@@H]1Cc1cccc(-c2ccccc2)c1 (relative stereo) [Example 95, N-(cis-2-(biphenyl-3-ylmethyl)-1-isobutyrylpiperidin-3-yl)methanesulfonamide]
106	CC(C)OC(=O)N1CCC[C@H](NS(C)(=O)=O)[C@@H]1Cc1cccc(-c2cccc(F)c2F)c1 (relative stereo) [Example 116, isopropyl cis-2-((2′,3′-difluorobiphenyl-3-yl)methyl)-3-((methylsulfonyl)amino)piperidine-1-carboxylate]
90	CS(=O)(=O)N[C@H]1CCCN(C(=O)OC2CC2)[C@H]1Cc1cccc(-c2ccccc2)c1 (relative stereo) [Example 126, cyclopropyl cis-2-(biphenyl-3-ylmethyl)-3-((methylsulfonyl)amino)piperidine-1-carboxylate]
65	COC(=O)N1CCC[C@H](NS(C)(=O)=O)[C@@H]1Cc1cccc(-c2ccsc2)c1 (relative stereo) [Example 159, methyl cis-3-((methylsulfonyl)amino)-2-(3-(3-thienyl)benzyl)piperidine-1-carboxylate]

Second part, the compound before the results:

Structure (SMILES)	OX2R agonist activity (3 μM, %) [%]
C=C(C)c1cccc(C[C@H]2[C@@H](NS(C)(=O)=O)CCCN2C(=O)OC)c1 (relative stereo) [Example 55, methyl cis-3-((methylsulfonyl)amino)-2-(3-(prop-1-en-2-yl)benzyl)piperidlne-1-carboxylate]	84
COC(=O)N1CCC[C@H](NS(C)(=O)=O)[C@@H]1Cc1cccc(C2CCC2)c1 (relative stereo) [Example 60, methyl cis-2-(3-cyclobutylbenzyl)-3-((methylsulfonyl)amino)piperidine-1-carboxylate]	26
CCNC(=O)N1CCC[C@H](NS(C)(=O)=O)[C@@H]1Cc1ccccc1Oc1ccccc1 (relative stereo) [Example 62, cis-N-ethyl-3-((methylsulfonyl)amino)-2-(2-phenoxybenzyl)piperidine-1-carboxamide]	93
CCNC(=O)N1CCC[C@H](NS(C)(=O)=O)[C@@H]1Cc1ccc(Oc2ccccc2)cc1 (relative stereo) [Example 63, cis-N-ethyl-3-((methylsulfonyl)amino)-2-(4-phenoxybenzyl)piperidine-1-carboxamide]	24
CC(C)OC(=O)N1CCC[C@H](NS(C)(=O)=O)[C@@H]1Cc1cccc(-c2ccccc2)n1 (relative stereo) [Example 64, isopropyl cis-3-((methylsulfonyl)amino)-2-((6-phenylpyridin-2-yl)methyl)piperidine-1-carboxylate]	96
CC(C)OC(=O)N1CC[C@H](NS(C)(=O)=O)[C@@H]1Cc1cccc(-c2ccccc2)c1 (relative stereo) [Example 74, isopropyl cis-2-(biphenyl-3-ylmethyl)-3-((methylsulfonyl)amino)pyrrolidine-1-carboxylate]	104
CC(C)OC(=O)N1CCC[C@H](NS(C)(=O)=O)[C@@H]1Cc1cccc2c1oc1ccccc12 (relative stereo) [Example 78, isopropyl cis-2-(dibenzo[b,d]furan-4-ylmethyl)-3-((methylsulfonyl)amino)piperidine-1-carboxylate]	35
CC(C)OC(=O)N1CCC[C@H](NS(C)(=O)=O)[C@@H]1Cc1csc(-c2ccccc2)n1 (relative stereo) [Example 89, isopropyl cis-3-((methylsulfonyl)amino)-2-((2-phenyl-1,3-thiazol-4-yl)methyl)piperidine-1-carboxylate]	96
CC(C)OC(=O)N1CCC[C@H](NS(C)(=O)=O)[C@@H]1Cc1cccc(-c2cc(F)ccc2F)n1 (relative stereo) [Example 100, isopropyl cis-2-((6-(2,5-difluorophenyl)pyridin-2-yl)methyl)-3-((methylsulfonyl)amino)piperidine-1-carboxylate]	107
CS(=O)(=O)N[C@H]1CCN(C(=O)OC2CC2)[C@H]1Cc1cccc(-c2ccccc2)c1 (relative stereo) [Example 108, cyclopropyl cis-2-(biphenyl-3-ylmethyl)-3-((methylsulfonyl)amino)pyrrolidine-1-carboxylate]	69
CC(C)OC(=O)N1CCC[C@H](NS(C)(=O)=O)[C@@H]1Cn1ccc(-c2ccccc2)n1 (relative stereo) [Example 122, isopropyl cis-3-((methylsulfonyl)amino)-2-((3-phenyl-1H-pyrazol-1-yl)methyl)piperidine-1-carboxylate]	82
CS(=O)(=O)N[C@H]1CCCN(C(=O)Oc2ccccc2)[C@H]1Cc1cccc(-c2ccccc2)c1 (relative stereo) [Example 145, phenyl cis-2-(biphenyl-3-ylmethyl)-3-((methylsulfonyl)amino)piperidine-1-carboxylate]	24
CCCS(=O)(=O)N[C@H]1CCCN(C(=O)OC(C)C)[C@H]1Cc1cccc(-c2ccccc2)n1 (relative stereo) [Example 173, isopropyl cis-2-((6-phenylpyridin-2-yl)methyl)-3-((propylsulfonyl)amino)piperidine-1-carboxylate]	68
CC(C)OC(=O)N1CCC[C@H](NS(=O)(=O)C2CC2)[C@@H]1Cc1cccc(-c2ccccc2)n1 (relative stereo) [Example 178, isopropyl cis-3-((cyclopropylsulfonyl)amino)-2-((6-phenylpyridin-2-yl)methyl)piperidine-1-carboxylate]	99
CC(C)OC(=O)N1CCC[C@H](NS(=O)(=O)CCl)[C@@H]1Cc1cccc(-c2ccccc2)n1 (relative stereo) [Example 181, isopropyl cis-3-(((chloromethyl)sulfonyl)amino)-2-((6-phenylpyridin-2-yl)methyl)piperidine-1-carboxylate]	100
CC(C)OC(=O)N1CCC[C@H](NS(=O)(=O)N(C)C)[C@@H]1Cc1cccc(-c2ccccc2)n1 (relative stereo) [Example 185, isopropyl cis-3-((dimethylsulfamoyl)amino)-2-((6-phenylpyridin-2-yl)methyl)piperidine-1-carboxylate]	99
